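Cultured in 96-well plates, cells were exposed to test compound for 48 hours across five concentrations. GI50 is the concentration that inhibits growth by half.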 Calls of active or inactive are those of the source. No stated cut-off is given here; in the data, active = GI50 up to about 1.1 µM and inactive = higher.
Columns and labels:
Assay in all cases: NCI-60 cell line screen, 48 h
UACC-257 = system: UACC-257
CAKI-1 = system: CAKI-1
NCI/ADR-RES = system: NCI/ADR-RES
SNB-19 = system: SNB-19
RXF 393 = system: RXF 393
SK-MEL-2 = system: SK-MEL-2
NCI-H522 = system: NCI-H522
OVCAR-3 = system: OVCAR-3
SN12C = system: SN12C
SK-MEL-28 = system: SK-MEL-28
SF-295 = system: SF-295
SW-620 = system: SW-620
LOX IMVI = system: LOX IMVI
UACC-62 = system: UACC-62
SR = system: SR
ACHN = system: ACHN

Structure (SMILES) | GI50 (UACC-257) | GI50 (CAKI-1) | GI50 (NCI/ADR-RES) | GI50 (SNB-19) | GI50 (RXF 393) | GI50 (SK-MEL-2) | GI50 (NCI-H522) | GI50 (OVCAR-3) | GI50 (SN12C) | GI50 (SK-MEL-28) | GI50 (SF-295) | GI50 (SW-620) | GI50 (LOX IMVI) | GI50 (UACC-62) | GI50 (SR) | GI50 (ACHN)
CCN1CC2(CO)CCC(OC)C34C5CC6C(OC)CC(O)(C5C6OC)C(O)(C(OC)C23)C14 (stereo unspecified) | > 375 µM (inactive) | > 375 µM (inactive) | > 375 µM (inactive) | > 375 µM (inactive) | > 375 µM (inactive) | > 59.4 µM (inactive) | > 375 µM (inactive) | > 174 µM (inactive) | > 375 µM (inactive) | > 375 µM (inactive) | > 375 µM (inactive) | > 375 µM (inactive) | > 375 µM (inactive) | > 375 µM (inactive) |  | 
O=C(O)CCC(NC(=O)c1ccc(Nc2nc3ccc(C(F)(F)F)cc3nc2-c2ccccc2)cc1)C(=O)O (stereo unspecified) | > 100 µM (inactive) | > 57.8 µM (inactive) | > 100 µM (inactive) | > 100 µM (inactive) | > 100 µM (inactive) | > 100 µM (inactive) | > 100 µM (inactive) | > 100 µM (inactive) | > 100 µM (inactive) | > 100 µM (inactive) | > 100 µM (inactive) | > 100 µM (inactive) | > 100 µM (inactive) | > 100 µM (inactive) |  | 
CCC(C(=O)O)c1ccc(OCc2ccccc2)cc1 (stereo unspecified) | > 100 µM (inactive) | > 100 µM (inactive) |  | > 100 µM (inactive) | > 100 µM (inactive) | > 100 µM (inactive) | > 100 µM (inactive) | > 100 µM (inactive) | > 100 µM (inactive) | > 100 µM (inactive) | > 100 µM (inactive) | > 100 µM (inactive) | > 100 µM (inactive) | > 100 µM (inactive) | > 100 µM (inactive) | > 100 µM (inactive)
O=CNc1cccc2c3c([nH]c12)CCCCCC3 | > 87.3 µM (inactive) | 33 µM (inactive) | > 100 µM (inactive) | > 100 µM (inactive) | > 75.7 µM (inactive) | > 100 µM (inactive) | > 67.1 µM (inactive) | > 100 µM (inactive) | > 100 µM (inactive) | > 100 µM (inactive) | > 62.4 µM (inactive) | > 100 µM (inactive) | > 100 µM (inactive) | > 100 µM (inactive) |  | 
CN(C)CCNCc1c2ccccc2c(CNCCN(C)C)c2ccccc12 | 18 µM (inactive) |  | > 100 µM (inactive) |  | 20.6 µM (inactive) | 22.4 µM (inactive) | 31 µM (inactive) | 37.5 µM (inactive) | 38.9 µM (inactive) | 63.8 µM (inactive) | 49.2 µM (inactive) | 18 µM (inactive) | 18.1 µM (inactive) | 26.1 µM (inactive) |  | 
CCN(CC)CCNC(=O)c1ccc([N+](=O)[O-])cc1OC | > 100 µM (inactive) | > 100 µM (inactive) |  | > 100 µM (inactive) | > 100 µM (inactive) | > 100 µM (inactive) | > 100 µM (inactive) | > 100 µM (inactive) | > 100 µM (inactive) | > 100 µM (inactive) | > 100 µM (inactive) | > 100 µM (inactive) | > 100 µM (inactive) | > 100 µM (inactive) | > 100 µM (inactive) | > 100 µM (inactive)
Nc1nc(=O)n(C2OC(CO)C(O)C2O)cc1F (stereo unspecified) | 3.78 µM (inactive) | 1.65 µM (inactive) | 0.76 µM (active) | 1.91 µM (inactive) | 43.5 µM (inactive) | > 100 µM (inactive) | 0.785 µM (active) | > 100 µM (inactive) | 3.28 µM (inactive) |  | 21.8 µM (inactive) | 22.2 µM (inactive) | 0.297 µM (active) | 1.36 µM (inactive) |  | 
O[C@H]1[C@H](O)[C@@H](O)CN2CC[C@H](O)[C@H]12 [CASTANOSPERMINE] | > 100 µM (inactive) | > 100 µM (inactive) | > 100 µM (inactive) | > 100 µM (inactive) | > 100 µM (inactive) | 99.3 µM (inactive) | > 100 µM (inactive) | > 100 µM (inactive) | > 100 µM (inactive) | > 100 µM (inactive) | > 100 µM (inactive) | > 100 µM (inactive) | > 100 µM (inactive) | > 100 µM (inactive) |  | 

Reference: ChEMBL document CHEMBL1201862, “PubChem BioAssay data set” (2004)
